Test results from patent US20100285959A1, “HERBICIDAL MIXTURES” (priority 2006, published 2010).

Assays:
winter barley (HORVW) = experiment: Test 21 growth chamber, postemergence; assay type: in vivo, Hordeum vulgare; conditions: 19 DAA
Experimental: (§1) A test was conducted to evaluate the effects on winter barley (HORVW, Hordeum vulgare L.), winter wheat (TRZAW, Triticum aestivum L.), and several weed species, of mixtures of Compound 2 with the commercial herbicide (2,4-dichlorophenoxy)acetic acid (2,4-D), an auxin mimic. […] Plants were treated postemergence at the 2-4 leaf growth stage, and each treatment was replicated one time. […] Plants were watered as needed. […] Results are from single replicates.

Russian thistle (SASKR) = experiment: Test 21 growth chamber, postemergence; assay type: in vivo, Salsola kali; conditions: 19 DAA
Experimental: as §1

wild mustard (SINAR) = experiment: Test 23 growth chamber, postemergence; assay type: in vivo, Sinapis arvensis; conditions: 21 DAA
Experimental: as §1, with “species” for “species,”, “herbicides” for “herbicide”, “(2,4-D) and (4-chloro-2-methylphenoxy)acetic acid (MCPA),” for “(2,4-D), an”, “mimics.” for “mimic.”, “three times.” for “one time.”, “means of the three” for “from single”

common chickweed (STEME) = experiment: Test 23 growth chamber, postemergence; assay type: in vivo, Stellaria media; conditions: 21 DAA
Experimental: as §1, with “species” for “species,”, “herbicides” for “herbicide”, “(2,4-D) and (4-chloro-2-methylphenoxy)acetic acid (MCPA),” for “(2,4-D), an”, “mimics.” for “mimic.”, “three times.” for “one time.”, “means of the three” for “from single”

giant foxtail (SETFA) = experiment: Test 2 field trial, preemergence; assay type: in vivo, Setaria faberi; set-up: scale not given here
Text: Corn seeds (hybrid ‘Pioneer 31G96’) were planted in mid spring season, 3.8 cm deep in a clay loam soil having 2% organic matter and a pH of 6.6. Plots were 6.1 m long by 3.0 m wide with rows spaced 76 cm apart. Seeds were spaced 15 cm apart within the rows. The field was managed using conventional tillage practices. […] A few of the weed species could not be evaluated at every timing. […] Results are the means of the three replicates.

common blackjack (BIDPI) = experiment: Test 12 field trial, preemergence; assay type: in vivo, Bidens pilosa; set-up: scale not given here; conditions: Cpd 2 or Cpd 1 62 g a.i./ha, Diuron 2000 g a.i./ha
Text: In early-mid spring season, corn seeds (hybrid ‘Pioneer 3041’) were planted 5 cm deep and sugarcane nodes (variety RB-72.454) were planted 10 cm deep in separate plots in a clay soil having 2.6% organic matter and a pH of 5.6. Plots were 24 m long by 1.5 m wide with rows spaced 80 cm (corn) or 140 cm (sugarcane) apart. Corn seeds were spaced 15 cm apart and sugarcane nodes were spaced 10 cm apart within the rows. At the same time, weed seeds were broadcast over the surface of separate plots without a crop, one weed species per plot. The weed plots were rotary tilled to incorporate the weed seeds to a variety of depths. The field was managed using conventional tillage practices.

red deadnettle (LAMPU) = experiment: Test 3 field trial, emerged weeds before corn planting; assay type: in vivo, Lamium purpureum; conditions: Cpd 2 100, glyphosate 1540, paraquat 1150 g a.i./ha, alone or combined
Text: Corn seeds (hybrid ‘Pioneer 33J56’) were planted in early spring season, 3.8 cm deep in a silt loam soil having 2.4% organic matter and a pH of 6. Plots were 6.1 m long by 2.7 m wide with rows spaced 91.4 cm apart. The field was managed using no-till practices. […] Compound 2 and paraquat treatments, alone and in combination, also included a surfactant. Glyphosate, alone and with Compound 2, included ammonium sulfate in the treatment mixture. […] The effects on the weeds in the treated plots and untreated control plots were recorded 30, 42, 46 and 68 days after application. Most of the weed species could not be evaluated at every timing. Corn response was not evaluated because the growth was highly variable depending on the efficacy of the weed control treatments. […] Results are the means of the three replicates.

yellow nutsedge (CYPES) = experiment: Test 14 field trial, preemergence, growth as percent of control; assay type: in vivo, Cyperus esculentus
Text: (§2) Corn seeds (hybrid ‘Pioneer 31G96 RR’) were planted in mid spring season, 3.8 cm deep in a clay loam soil having 2% organic matter and a pH of 6.6. Plots were 6.1 m long by 3.0 m wide with rows spaced 76 cm apart. Seeds were spaced 15 cm apart within the rows. The field was managed using conventional tillage practices. […] Yellow nutsedge was only evaluated 19 and 28 days after application, and ivyleaf morningglory could only be evaluated 28 days after application. […] Results are the means of the three replicates. This growth inhibition data was converted to results in the form of “plant growth as a percent of control plant growth” using the calculation “100 minus growth inhibition”. […] For “growth as a percent of control” data, Colby's Equation calculates the expected additive effect of herbicidal mixtures having two active ingredients as follows:
(§3) Ga+b=GaGb/100 • wherein Ga+b is the growth as a percent of control of plants treated with the mixture expected from additive contribution of the individual components, • Ga is the observed growth as a percent of control of plants treated with the first active ingredient at the same use rate as in the mixture, and • Gb is the observed growth as a percent of control of plants treated with the second active ingredient at the same use rate as in the mixture. For mixtures having three active ingredients, Colby's Equation to calculate the expected additive effect of herbicidal mixtures is as follows:
(§4) Ga+b+c=GaGbGc/10,000 • wherein Ga and Gb are as defined above and • Ga+b+c is the growth as a percent of control of plants treated with the mixture expected from additive contribution of the individual components, and • Gc is the observed growth as a percent of control of plants treated with the third active ingredient at the same use rate as in the mixture. When these two forms of Colby's Equation are used, if the observed effects on weeds are less than the expected values, the mixture is synergistic.

jimsonweed (DATST) = experiment: as above; assay type: in vivo, Datura stramonium
Text: as §2, §3, §4

[1] = 2,4-D or MCPA alone 250 g a.i./ha
[2] = 18 DAA, g a.i./ha: Cpd 2 25, Atrazine 250
[3] = 18 DAA, g a.i./ha: Cpd 2 50, Atrazine 500
[4] = 18 DAA, g a.i./ha: Cpd 2 75, Atrazine 750
[5] = 18 DAA, g a.i./ha: Cpd 2 100, Atrazine 1000
[6] = 18 DAA, g a.i./ha: Cpd 2 150, Atrazine 1500
[7] = 28 DAA, g a.i./ha: Cpd 2 25, Atrazine 250
[8] = 28 DAA, g a.i./ha: Cpd 2 50, Atrazine 500
[9] = 28 DAA, g a.i./ha: Cpd 2 75, Atrazine 750
[10] = 28 DAA, g a.i./ha: Cpd 2 100, Atrazine 1000
[11] = 28 DAA, g a.i./ha: Cpd 2 150, Atrazine 1500

Structure (SMILES)	SETFA Obs (giant foxtail (SETFA); [2])	SETFA Obs (giant foxtail (SETFA); [3])	SETFA Obs (giant foxtail (SETFA); [4])	SETFA Obs (giant foxtail (SETFA); [5])	SETFA Obs (giant foxtail (SETFA); [6])	SETFA Obs (giant foxtail (SETFA); [7])	SETFA Obs (giant foxtail (SETFA); [8])	SETFA Obs (giant foxtail (SETFA); [9])	SETFA Obs (giant foxtail (SETFA); [10])	SETFA Obs (giant foxtail (SETFA); [11])	BIDPI Obs (common blackjack (BIDPI); 15 DAA)	BIDPI Obs (common blackjack (BIDPI); 29 DAA)	BIDPI Obs (common blackjack (BIDPI); 48 DAA)	BIDPI Obs (common blackjack (BIDPI); 61 DAA)	LAMPU Obs (red deadnettle (LAMPU); 30 DAA) [%]	LAMPU Obs (red deadnettle (LAMPU); 42 DAA) [%]	LAMPU Obs (red deadnettle (LAMPU); 46 DAA) [%]	further results
O=C(O)COc1ccc(Cl)cc1Cl [2,4-D, (2,4-dichlorophenoxy)acetic acid]																		Postemergence HORVW Obs (winter barley (HORVW); 2,4-D alone 125 g a.i./ha): 25; Postemergence HORVW Obs (winter barley (HORVW); 2,4-D alone 250 g a.i./ha): 25; Postemergence SASKR Obs (Russian thistle (SASKR); 2,4-D alone 125 g a.i./ha): 60; Postemergence SASKR Obs (Russian thistle (SASKR); 2,4-D alone 250 g a.i./ha): 55; Postemergence SINAR Obs (wild mustard (SINAR); [1]): 65; Postemergence STEME Obs (common chickweed (STEME); [1]): 65
CCNc1nc(Cl)nc(NC(C)C)n1 [Atrazine, atrazine, reference compound]	20	25	40	43	38	37	67	83	87	88								SETFA Obs (giant foxtail (SETFA); 55 DAA, g a.i./ha: Cpd 2 25, Atrazine 250): 35; SETFA Obs (giant foxtail (SETFA); 55 DAA, g a.i./ha: Cpd 2 50, Atrazine 500): 60; SETFA Obs (giant foxtail (SETFA); 55 DAA, g a.i./ha: Cpd 2 75, Atrazine 750): 58; SETFA Obs (giant foxtail (SETFA); 55 DAA, g a.i./ha: Cpd 2 100, Atrazine 1000): 65; SETFA Obs (giant foxtail (SETFA); 55 DAA, g a.i./ha: Cpd 2 150, Atrazine 1500): 80
Nc1nc(C2CC2)nc(C(=O)O)c1Cl [Compound 1, 6-amino-5-chloro-2-cyclopropyl-4-pyrimidinecarboxylic acid]											70	80	80	60				
COC(=O)c1nc(C2CC2)nc(N)c1Cl [Compound 2, methyl 6-amino-5-chloro-2-cyclopropyl-4-pyrimidinecarboxylate]	13	22	32	35	43	5	10	30	23	65	60	80	80	70	87	35	100	Obs growth % of control (yellow nutsedge (CYPES); 19 DAA, 75 g a.i./ha): 85%; Obs growth % of control (yellow nutsedge (CYPES); 19 DAA, 100 g a.i./ha): 78%; Obs growth % of control (yellow nutsedge (CYPES); 28 DAA, 75 g a.i./ha): 85%; Obs growth % of control (yellow nutsedge (CYPES); 28 DAA, 100 g a.i./ha): 90%; Obs growth % of control (jimsonweed (DATST); 19 DAA, 75 g a.i./ha): 93%; Obs growth % of control (jimsonweed (DATST); 19 DAA, 100 g a.i./ha): 73%; Obs growth % of control (jimsonweed (DATST); 28 DAA, 75 g a.i./ha): 32%; Obs growth % of control (jimsonweed (DATST); 28 DAA, 100 g a.i./ha): 30%; Obs growth % of control (jimsonweed (DATST); 56 DAA, 75 g a.i./ha): 0%; Obs growth % of control (jimsonweed (DATST); 56 DAA, 100 g a.i./ha): 5%; Postemergence HORVW Obs (winter barley (HORVW); Cpd 2 alone 16 g a.i./ha): 30; Postemergence SASKR Obs (Russian thistle (SASKR); Cpd 2 alone 16 g a.i./ha): 65; Postemergence SINAR Obs (wild mustard (SINAR); Cpd 2 alone 4 g a.i./ha): 43; Postemergence SINAR Obs (wild mustard (SINAR); Cpd 2 alone 8 g a.i./ha): 53; Postemergence SINAR Obs (wild mustard (SINAR); Cpd 2 alone 16 g a.i./ha): 55; Postemergence STEME Obs (common chickweed (STEME); Cpd 2 alone 4 g a.i./ha): 55; Postemergence STEME Obs (common chickweed (STEME); Cpd 2 alone 8 g a.i./ha): 58; Postemergence STEME Obs (common chickweed (STEME); Cpd 2 alone 16 g a.i./ha): 67
O=C(O)CNCP(=O)(O)O [Glyphosate]															70	52	97	
CCc1cccc(C)c1N(C(=O)CCl)[C@@H](C)COC [S-Metolachlor, S-metolachlor, reference compound]																		Obs growth % of control (yellow nutsedge (CYPES); 28 DAA, 1870 g a.i./ha): 8%; Obs growth % of control (jimsonweed (DATST); 19 DAA, 1870 g a.i./ha): 100%; Obs growth % of control (jimsonweed (DATST); 28 DAA, 1870 g a.i./ha): 22%; Obs growth % of control (jimsonweed (DATST); 56 DAA, 1870 g a.i./ha): 30%
